The test system of one data set is rat caudate nuclei. Nature of the data set: GAD activity in rat caudate nuclei damaged by NMDA. Type of data set: in vivo. Here is the method:
The effect of AIT-082 on in vivo neuroprotection was also assessed by assaying for glutamic acid decarboxylase (GAD) activity.
GAD activity in rat caudate nuclei was damaged in vivo by NMDA. Increasing amounts of NMDA (25-300 nmoles) were unilaterally infused into caudate nuclei of rats. Eight to 10 days after the injections, glutarnic acid decarboxylase (GAD) activity was assayed, as an index of the loss of GABA-ergic neurons. NMDA produced a dose-dependent lesion, which at its maximal extension caused a reduction of GAD activity by 50% in comparison with that of contralateral sham-operated nuclei (control). […] The necrotic areas are in white, whereas the shadow is the surrounding edema GAD activity was evaluated by measuring the ex novo formation of [^3H]GABA from dissected striata exposed to 1 μCi of [^3H]glutamate for 1 hour at 37° C. GABA was assayed by HPLC with fluorescence detection and the [3H]label associated with GABA was measured.

The test system of another data set is BDNF. Nature of the data set: Two-site ELISA of growth factor protein in rat brain and spinal cord: BDNF. The class given is in vivo, F344 rats. As to the method:
(§1) Adult female F344 rats were given either AIT-082 (doses: 30 mg/kg/day or a higher dose of 30 mg/ml (˜3,000 mg/kg/day); n=6 rats per group) in their drinking water, or water alone, as a vehicle for control. The duration of the study was seven days, at which time the rats were anesthesized and perfused with ice-cold saline. The brains of the rats were rapidly removed. The brains were placed on a chilled glass plate and dissected into the following regions: basal forebrain, frontal cortex, parietal cortex, cerebellum, spinal cord, and hippocampal formation. Tissues were stored at −70° C. until assayed in a specific two-site ELISA for either NGF, BDNF, NT-3, or GNDF.
(§2) The results are shown in FIGS. 45 (BDNF), 46 (NT-3), 47 (GDNF) and 48 (NGF). For the results shown in FIGS. 45-48, animals were given only water (VEH, n=6) or water with AIT-082 at either 30 mg/kg/day (n=6) or 30 mg/ml (n=6) for seven days. The levels of each growth factor were determined in the frontal cortex (F. Cor.), parietal cortex (P.Cor.), hippocampal formation (Hipp.), basal forebrain (B.F.), cerebellum (Cer.), or spinal cord (Cord) using a specific two-site ELISA for each growth factor.
(§3) Adult female rats were given AIT-082 (30 mg/kg/day) in their drinking water or drinking water alone (n=6 for each group) for seven days prior to receiving a bilateral fimbria fornix transection (FFT).
(§4) The results are shown in FIGS. 49 (BDNF), 50 (NT-3), 51 (GDNF) and 52 (NGF). For the results shown in the Figures, animals were given only water (VEH, n=3) or water with AIT-082 at 30 mg/kg/day (n=3). Levels of the growth factor were determined in frontal cortex (F.Cor.), parietal cortex (P.Cor.), hippocampal formation (Hipp.), basal forebrain (B.F.), cerebellum (Cer.), or spinal cord (Cord) using a specific two-site ELISA for each growth factor.
(§5) Aged female Fischer 344 rats (obtained from National Institute on Aging; 24 months on arrival) were given AIT-082 (30 mg/kg/day) in their drinking water or drinking water alone, for a period of 30 days (n=5 rats per group). After 30 days, animals were sacrificed and fresh tissues were dissected as described above. An additional set of young animals (n=5) was processed along with the aged rats for comparison.
(§6) Results are shown in FIGS. 53 (BDNF), 54 (NT3), 55 (GDNF), and 56 (NGF). As described above, for the results shown in these figures, aged rats (24 months of age) were given water (vehicle control; n=5) or water with AIT-082 (at 30 mg/kg/day; n=5 for 30 days). A separate group of young untreated animals was also included (n=5). Levels of each growth factor were determined in frontal cortex (F.Cor.), parietal cortex (P. Cor.), hippocampal formation (Hipp.), basal forebrain (B.F.), cerebellum (Cer.) or spinal cord (Cord) using a specific two-site ELISA.
For orientation: In an ELISA, binding on a coated surface is turned into a signal by an enzyme label.

For data set [1] the following is noted: 79 different test systems.
A further data set relates to adenosine receptor. Nature of the data set: Receptor ligand binding in vitro, adenosine. As to the method:
AIT-082 was evaluated for its ability to inhibit ligand binding to 38 isolated receptors.

A further data set has as its system S100β. Nature of the data set: Summary of effects on growth factor mRNA and protein (Table R): S100β. Set-up: key: ± = mRNA; + = protein; nt = not tested. The conditions noted are these: Cultured Cells. An excerpt:
(§7) The constellation of effects of AIT-082 on production of mRNA encoding growth factors and on production of growth factor proteins is shown in Table R. The results summarized in […] show both transcriptional and translational effects on growth factors that are in the categories of neurotrophins, pleiotrophins, members of the S100 family of EF hand calcium binding proteins, and members of the TGFβ superfamily. As indicated, effects have been shown at both the mRNA (transcriptional) and protein (translational) levels.

For data set [2], the system named is NT-3. Nature of the data set: Summary of effects on growth factor mRNA and protein (Table R): NT-3. Set-up: key: ± = mRNA; + = protein; nt = not tested.
From the text: as §7

Data set [3] concerns NT-3. Nature of the data set: Two-site ELISA of growth factor protein in rat brain and spinal cord: NT-3. Type of data set: in vivo, F344 rats. As to the method:
as §1, §2, §3, §4, §5, §6

Another data set has as its system acetylcholine receptors. Type of data set: binding, mouse.
A further data set has as its system Swiss Webster mice. As to the kind of experiment: T-maze discrimination learning and reversal. Type of data set: in vivo. An excerpt:
Subjects were also trained in the same T-maze used for the win-shift model discussed above. As in the win-shift method, subjects were shaped and then given a single reference run in which reward was available in both goal boxes. The subject was only allowed to consume the milk reward in the goal box selected. On the next run, the reward and thus the correct response was in the same goal box selected for the reference run and was not alternated. The subject was required to learn that there was no shift in the goal box for the correct response. The subjects were given 10 trials per day and continued until the subject had at least 8 out of 10 correct responses on two consecutive days. The number of days to reach this criteria of performance was recorded. After the subject reached criteria, the goal box for the correct response was reversed. The number of days taken to reach criteria on reversal was recorded.

Regarding `O=C(CCn1cnc2c(=O)[nH]cnc21)Nc1ccc(C(=O)O)cc1` [AIT-082, N-4-carboxyphenyl-3-(6-oxohydropurin-9-yl)propanamide], the “GAD activity in damaged striata” value in the data set on rat caudate nuclei (daily intraperitoneal injection for seven days, 200 mnoles NMDA) is recorded as “nearly completely preserved GAD activity”. Moreover, the “loss of GAD activity” value with rat caudate nuclei (local, 300 mnoles AIT-082 coinfused with 200 nmoles NMDA) was “almost completely prevented the loss of GAD activity”. In addition, the “BDNF protein levels over vehicle controls” value in the data set on BDNF (FFT-lesioned rats, 30 mg/kg/day, frontal cortex, significance not achieved) is “almost threefold”; in the data set on BDNF (intact adult rats, 30 mg/kg/day in drinking water 7 days, frontal cortex), “more than twofold”; in the data set with BDNF (intact adult rats, 3000 mg/kg/day, frontal cortex) it was “not seen”; with BDNF (intact adult rats, spinal cord, not significant (p>0.05)) it was “twofold”. In the data set with BDNF (aged rats, 30 mg/kg/day 30 days, any brain region), the BDNF protein levels result is recorded as “no effect”. In [1], the “toxicity in standard profile” value is “absence of any toxicity”. The “binding to the adenosine receptor” value in the data set with adenosine receptor was “does not bind”. Besides, the “S100β, effect on mRNA/protein production” value with S100β is listed as “+”. In addition, the “NT-3, effect on mRNA/protein production” value in the data set with NT-3 [2] (Aged Brain) was “+”; with NT-3 [2] (Cultured Cells) it was “±”; in the data set with NT-3 [2] (Lesioned Spinal Cord), “±”; with NT-3 [2] (Normal Brain), “+”. Moreover, the “NT-3 protein levels compared to vehicle controls” value in the data set with NT-3 [3] (FFT-lesioned rats, 30 mg/kg/day, basal forebrain) is recorded as “threefold”. The NT-3 protein levels result with NT-3 [3] (aged rats, 30 mg/kg/day 30 days, hippocampus) is “restored NT-3 protein levels to those of young animals”; in the data set on NT-3 [3] (intact adult rats, 30 mg/kg/day, cerebellum), “increased NT-3 levels in cerebellum over vehicle controls”; in the data set on NT-3 [3] (intact adult rats, 3000 mg/kg/day, cerebellum), “absent”. Moreover, the “interference with the binding of QNB” value with acetylcholine receptors is “no effect”. Also, the “T-maze Learning, Learning” value in the data set on Swiss Webster mice (AIT-082 0.5 mg/kg) is recorded as 3.0 days to reach criteria; in the data set with Swiss Webster mice (AIT-082 30.0 mg/kg) it was 3.3 days to reach criteria. The results for the “T-maze Learning, Reversal” value with Swiss Webster mice (AIT-082 0.5 mg/kg) and in the data set with Swiss Webster mice (AIT-082 30.0 mg/kg) were 3.78 days to reach criteria and 3.5 days to reach criteria, respectively.
